Measurements taken from patent publication US20060240048A1 (priority 2002, published 2006).

Target: T1, human cannabinoid CB2 receptor (Homo sapiens, UniProt P34972)
T1 construct: expressed in transfected cells; host or cells: Saccharomyces cerevisiae strain MMY23
Assay: Cannabinoid CB2 receptor agonist activity, yeast reporter assay (FDGlu fluorescence);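 on Emax: 100% equals maximal response of reference agonist HU210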
Type: cell-based
Settings: for Emax: read-out: efficacy value (Emax) at the cloned human cannabinoid CB2 receptor
Description: The cannabinoid CB2 receptor agonist activity of the compounds of formula (I) was determined in accordance with the following experimental method.
Yeast (Saccharomyces cerevisiae) cells expressing the human cannabinoid CB2 receptor were generated by integration of an expression cassette into the ura3 chromosomal locus of yeast strain MMY23. This cassette consisted of DNA sequence encoding the human CB2 receptor flanked by the yeast GPD promoter to the 5′ end of CB2 and a yeast transcriptional terminator sequence to the 3′ end of CB2. MMY23 expresses a yeast/mammalian chimeric G-protein alpha subunit in which the C-terminal 5 amino acids of Gpa1 are replaced with the C-terminal 5 amino acids of human Gαi3 (as described in Brown et al. (2000), Yeast 16:11-22). Cells were grown at 30° C. in liquid Synthetic Complete (SC) yeast media (Guthrie and Fink (1991), Methods in Enzymology, Vol. 194) lacking uracil, tryptophan, adenine and leucine to late logarithmic phase (approximately 6 OD600/ml).
Agonists were prepared as 10 mM stocks in DMSO. […] Agonist solutions in DMSO (1% final assay volume) were transferred into black, clear bottom, microtitre plates from NUNC (96- or 384-well). […] This mixture (50 ul per well for 384-well plates, 200 ul per well for 96-well plates) was added to agonist in the assay plates (Multidrop 384, Labsystems). After incubation at 30° C. for 24 hours, fluorescence resulting from degradation of FDGlu to fluorescein due to exoglucanase, an endogenous yeast enzyme produced during agonist-stimulated cell growth, was determined using a Spectrofluor microtitre plate reader (Tecan; excitation wavelength: 485 nm; emission wavelength: 535 nm). Fluorescence was plotted against compound concentration and iteratively curve fitted using a four parameter fit to generate a concentration effect value.
where Max[compound X] and Min[compound X] are the fitted maximum and minimum respectively from the concentration effect curve for compound X, and Max[HU210] and Min[HU210] are the fitted maximum and minimum respectively from the concentration effect curve for (6aR,10aR)-3-(1,1′-Dimethylheptyl)-6a,7,10,10a-tetrahydro-1-hydroxy-6,6-dimethyl-6H-dibenzo[b,d]pyran-9-methanol (HU210; available from Tocris). Equieffective molar ratio (EMR) values were calculated from the equation EMR=EC50 [compound X]/EC50 [HU210]
Where EC50 [compound X] is the EC50 of compound X and EC50 [HU210] is the EC50 of HU210.

T1 sequence (P34972 whole entry): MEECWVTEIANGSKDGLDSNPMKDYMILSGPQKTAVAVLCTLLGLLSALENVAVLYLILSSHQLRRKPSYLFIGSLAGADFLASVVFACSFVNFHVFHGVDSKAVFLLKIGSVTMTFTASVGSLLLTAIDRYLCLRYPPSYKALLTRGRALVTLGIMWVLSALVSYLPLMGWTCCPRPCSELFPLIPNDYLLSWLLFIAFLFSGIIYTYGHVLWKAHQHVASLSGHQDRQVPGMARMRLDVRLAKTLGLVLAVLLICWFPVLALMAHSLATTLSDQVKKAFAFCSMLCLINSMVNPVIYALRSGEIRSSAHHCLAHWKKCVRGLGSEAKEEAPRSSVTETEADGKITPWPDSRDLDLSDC

SMILES	Emax [%]	EC50 [nM]
O=C(NCC1CCCCC1)c1cnc(Nc2cccc(Cl)c2)cc1C(F)(F)F [Example 1, 2-(3-Chlorophenylamino)-4-trifluoromethylpyridine-5-carboxylic acid cyclohexylmethyl amide]	> 50	
CC(C)c1cc(Nc2cccc(Cl)c2)ncc1C(=O)NCC1CCCCC1 [Example 2, 6-(3-Chlorophenylamino)-N-cyclohexylmethyl-4-isopropylnicotinamide]	> 50	< 300
CC(C)c1cc(Nc2ccc(Cl)c(Cl)c2)ncc1C(=O)NCC1CCCCC1 [Example 3, N-Cyclohexylmethyl-6-(3,4-dichloro-phenylamino)-4-isopropyl-nicotinamide]	> 50	< 300
CC(C)c1cc(Nc2ccc(Cl)cc2Cl)ncc1C(=O)NCC1CCCCC1 [Example 5, N-Cyclohexylmethyl-6-(2,4-dichloro-phenylamino)-4-isopropyl-nicotinamide]	> 50	< 300
CC(C)c1cc(Nc2cccc(Cl)c2)ncc1C(=O)NCC1CCC1 [Example 6, 6-(3-Chloro-phenylamino)-N-cyclobutylmethyl-4-isopropyl-nicotinamide]	> 50	< 300
CC(C)c1cc(Nc2cccc(Cl)c2)ncc1C(=O)NCC1CCOCC1 [Example 7, 6-(3-Chloro-phenyl-amino)-4-isopropyl-N-(tetrahydro-pyran-4-ylmethyl)-nicotinamide]	> 50	
CC(C)c1cc(Nc2cccc(Br)c2)ncc1C(=O)NCC1CCOCC1 [Example 8, 6-(3-Bromo-phenyl-amino)-4-isopropyl-N-(tetrahydro-pyran-4-ylmethyl)-nicotinamide]	> 50	
COc1cccc(Nc2cc(C(C)C)c(C(=O)NCC3CCCCC3)cn2)c1 [Example 9, N-Cyclohexylmethyl-4-isopropyl-6-(3-methoxy-phenylamino)-nicotinamide]	> 50	< 300
CC(C)c1cc(Nc2cccc(F)c2)ncc1C(=O)NCC1CCCCC1 [Example 10, N-Cyclohexylmethyl-6-(3-fluoro-phenylamino)-4-isopropyl-nicotinamide]	> 50	< 300
CC(C)c1cc(Nc2cccc(Cl)c2)ncc1C(=O)N1CCOCC1 [Example 11, 1-[6-(3-Chloro-phenylamino)-4-isopropyl-pyridin-3-yl]-1-morpholin-4-yl-methanone]	> 50	< 300
CC(C)c1cc(Nc2cccc(Br)c2)ncc1C(=O)NCC1CCCCC1 [Example 12, 6-(3-Bromo-cyclohexylmethyl-4-phenylamino)-N-isopropyl-nicotinamide]	> 50	< 300
Cc1cccc(Nc2cc(C(C)C)c(C(=O)NCC3CCCCC3)cn2)c1 [Example 13, N-Cyclohexylmethyl-4-isopropyl-6-m-tolytamino-nicotinamide]	> 50	< 300
CC(C)c1cc(Nc2cccc(C(F)(F)F)c2)ncc1C(=O)NCC1CCCCC1 [Example 14, N-Cyclohexylmethyl-4-isopropyl-6-(3-trifluoromethyl-phenylamino)-nicotinamide]	> 50	< 300
CC(C)c1cc(Nc2cccc(OC(F)(F)F)c2)ncc1C(=O)NCC1CCCCC1 [Example 15, N-Cyclohexylmethyl-4-isopropyl-6-(3-trifluoromethoxy-phenylamino)-nicotinamide]	> 50	< 300
CC(C)c1cc(Nc2cccc(Cl)c2Cl)ncc1C(=O)NCC1CCOCC1 [Example 16, 6-(2,3-Dichloro-phenylamino)-4-isopropyl-N-(tetrahydro-pyran-4-ylmethyl)-nicotinamide]	> 50	< 300
CC(C)c1cc(Nc2ccc(Cl)cc2Cl)ncc1C(=O)NCC1CCOCC1 [Example 17, 6-(2,4-Dichloro-phenylamino)-4-isopropyl-N-(tetrahydro-pyran-4-ylmethyl)-nicotinamide]	> 50	
CC(C)c1cc(Nc2ccc(Cl)c(Cl)c2)ncc1C(=O)NCC1CCOCC1 [Example 18, 6-(3,4-Dichloro-phenylamino)-4-isopropyl-N-(tetrahydro-pyran-4-ylmethyl)-nicotinamide]	> 50	< 300
CC(C)c1cc(Nc2cccc(C(F)(F)F)c2)ncc1C(=O)NCC1CCOCC1 [Example 19, 4-Isopropyl-N-(tetrahydro-pyran-4-ylmethyl)-6-(3-trifluoromethyl-phenylamino) nicotinamide]	> 50	< 300

SMILES	Emax [%]	EC50 [nM]
CC(C)c1cc(Nc2cccc(OC(F)(F)F)c2)ncc1C(=O)NCC1CCOCC1 [Example 20, 4-Isopropyl-N-(tetrahydro-pyran-4-ylmethyl)-6-(3-trifluoromethoxy-phenylamino) nicotinamide]	> 50	< 300
CC(C)c1cc(Nc2cccc(Cl)c2)ncc1C(=O)NCC1CCCC1 [Example 21, 6-[(3-Chloro-phenyl)amino]-N-(cyclopentylmethyl)-4-isopropyl-nicotinamide]	> 50	
CC(C)c1cc(Nc2cccc(F)c2)ncc1C(=O)NCC1CCCC1 [Example 22, N-Cyclopentylmethyl-6-(3-fluorophenylamino)-4-isopropyl-nicotinamide]	> 50	< 300
CC(C)c1cc(Nc2cccc(C(F)(F)F)c2)ncc1C(=O)NCC1CCCC1 [Example 23, N-Cyclopentylmethyl-4-isopropyl-6-(3-trifluoromethyl-phenylamino)-nicotinamide]	> 50	< 300
Cc1cccc(Nc2cc(C(C)C)c(C(=O)NCC3CCCC3)cn2)c1 [Example 24, N-Cyclopentylmethyl-4-isopropyl-6-m-tolylamino-nicotinamide]	> 50	< 300
CC(C)c1cc(Nc2cccc(OC(F)(F)F)c2)ncc1C(=O)NCC1CCCC1 [Example 25, N-Cyclopentylmethyl-4-isopropyl-6-(3-trifluoromethoxy-phenylamino)-nicotinamide]	> 50	< 300
CC(C)c1cc(Nc2cccc(Br)c2)ncc1C(=O)NCC1CCCC1 [Example 26, 6-(3-Bromophenylamino)-N-cyclopentylmethyl-4-isopropyl-nicotinamide]	> 50	< 300
COc1cccc(Nc2cc(C(C)C)c(C(=O)NCC3CCCC3)cn2)c1 [Example 27, N-Cyctopentylmethyl-4-isopropyl-6-(3-methoxyphenylamino) nicotinamide]	> 50	< 300
CC(C)c1cc(Nc2cccc(C#N)c2)ncc1C(=O)NCC1CCCC1 [Example 28, 6-(3-Cyano-phenylamino)-N-cyclopentylmethyl-4-isopropyl-nicotinamide]	> 50	< 300
CC(C)c1cc(Nc2ccc(F)cc2Cl)ncc1C(=O)NCC1CCCC1 [Example 29, 6-(2-Chloro-4-fluoro-phenylamino)-N-cyclopentylmethyl-4-isopropyl-nicotinamide]	> 50	< 300
CC(C)c1cc(Nc2ccc(C#N)cc2Cl)ncc1C(=O)NCC1CCCC1 [Example 30, 6-(2-Chloro-4-cyano-phenylamino)-N-cyclopentylmethyl-4-isopropyl-nicotinamide]	> 50	< 300
CC(C)c1cc(Nc2ccc(Cl)cc2Cl)ncc1C(=O)NCC1CCCC1 [Example 31]	> 50	< 300
CC(C)c1cc(Nc2ccc(Cl)c(Cl)c2)ncc1C(=O)NCC1CCCC1 [Example 32]	> 50	< 300
CC(C)c1cc(Nc2cccc(Br)c2)ncc1C(=O)NCC1CCC1 [Example 33, 6-(3-Bromo-phenylamino)-N-cyclobutylmethyl-4-isopropyl-nicotinamide]	> 50	< 300
CC(C)c1cc(Nc2cccc(F)c2)ncc1C(=O)NCC1CCC1 [Example 34, N-Cyclobutylmethyl-6-(3-fluoro-phenylamino)-4-isopropyl-nicotinamide]	> 50	< 300
CC(C)c1cc(Nc2cccc(C(F)(F)F)c2)ncc1C(=O)NCC1CCC1 [Example 35, N-Cyclobutylmethyl-6-(3-trifluoromethyl-phenylamino)-4-]	> 50	< 300
CC(C)c1cc(Nc2cccc(C#N)c2)ncc1C(=O)NCC1CCC1 [Example 36, 6-(3-Cyano-phenylamino)-N-cyclobutylmethyl-4-isopropyl-nicotinamide]	> 50	< 300
Cc1cccc(Nc2cc(C(C)C)c(C(=O)NCC3CCC3)cn2)c1 [Example 37, N-Cyclobutylmethyl-4-isopropyl-6-m-tolylamino-nicotinamide]	> 50	
